From US5677419A, “Cyclic vasoactive peptide analogs” (Hoffmann-La Roche Inc., priority 1994, dated 1997) come the findings set out here.

One may read the EC50 as the concentration giving half of the maximal effect.

Where a SMILES comes first, the peptide text is derived from it. Bridges are numbered along the chain shown (N, C = ends). [ ]: non-standard residue; d: D form. Phe(4-F) = N[C@@H](Cc1ccc(F)cc1)C(=O)O; Nle = CCCC[C@H](N)C(=O)O

In experiment [1] the test system is guinea pig tracheal smooth muscle. The experiment is described as follows: Tracheal relaxant activity of VIP analogs on isolated guinea pig tracheal rings. Particulars: cumulative concentration response, relaxation as % of maximum response to VIP (10^-6 M=100%), three tissues pooled, linear regression. The format is cell-based. The procedure, abridged: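 Male guinea pig tracheal rings under 1.5 g resting tension in Krebs at 37° C, 95% O2/5% CO2, isometric tension. Cumulative concentration-response curves; relaxation as % of response to 10^-6 M VIP added at end; three tissues pooled, EC50 by linear regression.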

For experiment [2], the system named is guinea pigs. Nature of the experiment: In vivo bronchodilator activity by tracheal instillation against histamine challenge. Particulars: anesthetized male guinea pigs, inhibition of histamine (i.v.)-induced rise in tracheal pressure. Set-up: species or system guinea pig. The procedure, abridged:
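Urethane-anaesthetised male Hartley guinea pigs (400-600 g) received compound in water by intratracheal instillation, then were paralysed, ventilated and challenged with histamine […] i.v. Tracheal pressure change gave % inhibition (≥3 animals/group); ED50 from log dose-response; duration as time until inhibition fell to 40%.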

As to `CCCC[C@H](NC(=O)[C@H](CCC(N)=O)NC(=O)[C@H](CCCCN)NC(=O)[C@H](CCCNC(=N)N)NC(=O)[C@H](CC(C)C)NC(=O)[C@H](CCCCN)NC(=O)[C@@H](NC(=O)[C@H](Cc1ccc(O)cc1)NC(=O)[C@H](CC(N)=O)NC(=O)[C@H](CCC(=O)O)NC(=O)[C@@H](NC(=O)[C@H](Cc1ccc(F)cc1)NC(=O)[C@@H](NC(=O)[C@H](C)NC(=O)[C@H](CC(=O)O)NC(=O)[C@H](CO)NC(=O)[C@H](Cc1c[nH]cn1)NC(C)=O)C(C)C)[C@@H](C)O)[C@@H](C)O)C(=O)N[C@@H](C)C(=O)N[C@H](C(=O)N[C@@H](CCCCN)C(=O)N[C@H]1CCCCNC(=O)C[C@@H](C(=O)N[C@H](C(=O)N[C@@H](CC(C)C)C(=O)N[C@H](C(=O)NCC(=O)NCC(=O)N[C@H](C(N)=O)[C@@H](C)O)[C@@H](C)O)C(C)C)NC(=O)[C@H](CC(N)=O)NC(=O)[C@H](CC(C)C)NC(=O)[C@H](Cc2ccc(O)cc2)NC1=O)C(C)C` [SEQ ID NO:66, Ac-[p-F-Phe^6,Glu^8,Lys^12,Nle^17,Asp^25,Val^26,Thr^28,Gly^29,30,Thr^31]-VIP cyclo (Lys^21 →Asp^25)] (Ac-HSDAV[Phe(4-F)]TENYTKLRKQ[Nle]AVKKYLNDVLTGGT-NH2; lactam 21-25), in experiment [1], the EC50 is 0.57 nM. Besides, in experiment [2], the “Bronchodilator activity of VIP analogs in guinea pigs, ED50” value (“Bronchodilator activity of VIP analogs” for short) was 0.12 μg.

In turn, `CCCC[C@H](NC(=O)[C@H](CCC(N)=O)NC(=O)[C@H](CCCCN)NC(=O)[C@H](CCCNC(=N)N)NC(=O)[C@H](CC(C)C)NC(=O)[C@H](CCCCN)NC(=O)[C@@H](NC(=O)[C@H](Cc1ccc(O)cc1)NC(=O)[C@H](CC(N)=O)NC(=O)[C@H](CCC(=O)O)NC(=O)[C@@H](NC(=O)[C@H](Cc1ccccc1)NC(=O)[C@@H](NC(=O)[C@H](C)NC(=O)[C@H](CC(=O)O)NC(=O)[C@H](C)NC(=O)[C@H](Cc1c[nH]cn1)NC(C)=O)C(C)C)[C@@H](C)O)[C@@H](C)O)C(=O)N[C@@H](C)C(=O)N[C@H](C(=O)N[C@@H](CCCCN)C(=O)N[C@H]1CCCCNC(=O)C[C@@H](C(=O)N[C@@H](CC(C)C)C(=O)N[C@@H](CCCCN)C(=O)N[C@@H](CCCCN)C(=O)NCC(=O)NCC(=O)N[C@H](C(N)=O)[C@@H](C)O)NC(=O)[C@H](CC(N)=O)NC(=O)[C@H](CC(C)C)NC(=O)[C@H](Cc2ccc(O)cc2)NC1=O)C(C)C` [SEQ ID NO:67, Ac-[Ala^2,Glu^8,Lys^12,Nle^17,Asp^25,Leu^26,Lys^27,28,Gly^29,30,Thr^31]-VIP cyclo (Lys^21 →Asp^25)] (Ac-HADAVFTENYTKLRKQ[Nle]AVKKYLNDLKKGGT-NH2; lactam 21-25) registered an EC50 in experiment [1] of 0.19 nM. In addition, in experiment [2], the “Bronchodilator activity of VIP analogs” value worked out at 0.077 μg.

In experiment [1], `CCCC[C@H](NC(=O)[C@H](CCC(N)=O)NC(=O)[C@H](CCCCN)NC(=O)[C@H](CCCNC(=N)N)NC(=O)[C@H](CC(C)C)NC(=O)[C@H](CCCCN)NC(=O)[C@@H](NC(=O)[C@H](Cc1ccc(O)cc1)NC(=O)[C@H](CC(N)=O)NC(=O)[C@H](CCC(=O)O)NC(=O)[C@@H](NC(=O)[C@H](Cc1ccccc1)NC(=O)[C@@H](NC(=O)[C@H](C)NC(=O)[C@H](CC(=O)O)NC(=O)[C@H](CO)NC(=O)[C@H](Cc1c[nH]cn1)NC(C)=O)C(C)C)[C@@H](C)O)[C@@H](C)O)C(=O)N[C@@H](C)C(=O)N[C@H](C(=O)N[C@@H](CCCCN)C(=O)N[C@H]1CCCCNC(=O)C[C@@H](C(=O)N[C@@H](CC(C)C)C(=O)N[C@@H](CCCCN)C(=O)N[C@@H](CCCCN)C(=O)NCC(=O)NCC(=O)N[C@H](C(N)=O)[C@@H](C)O)NC(=O)[C@H](CC(N)=O)NC(=O)[C@H](CC(C)C)NC(=O)[C@H](Cc2ccc(O)cc2)NC1=O)C(C)C` [SEQ ID NO:68, Ac-[Glu^8,Lys^12,Nle^17,Asp^25,Leu^26,Lys^27,28,Gly^29,30,Thr^31]-VIP cyclo (Lys^21 →Asp^25)] (Ac-HSDAVFTENYTKLRKQ[Nle]AVKKYLNDLKKGGT-NH2; lactam 21-25) showed an EC50 of 0.43 nM. The “Bronchodilator activity of VIP analogs” value in experiment [2] amounted to 0.04 μg.

On to `CCCC[C@H](NC(=O)[C@H](CCC(N)=O)NC(=O)[C@H](CCCCN)NC(=O)[C@H](CCCNC(=N)N)NC(=O)[C@H](CC(C)C)NC(=O)[C@H](CCCCN)NC(=O)[C@@H](NC(=O)[C@H](Cc1ccc(O)cc1)NC(=O)[C@H](CC(N)=O)NC(=O)[C@H](CC(=O)O)NC(=O)[C@@H](NC(=O)[C@H](Cc1ccccc1)NC(=O)[C@@H](NC(=O)[C@H](C)NC(=O)[C@H](CC(=O)O)NC(=O)[C@H](CO)NC(=O)[C@H](Cc1c[nH]cn1)NC(C)=O)C(C)C)[C@@H](C)O)[C@@H](C)O)C(=O)N[C@@H](C)C(=O)N[C@@H](C)C(=O)N[C@@H](CCCCN)C(=O)N[C@H]1CCCCNC(=O)C[C@@H](C(=O)N[C@@H](CC(C)C)C(=O)N[C@@H](CCCCN)C(=O)N[C@@H](CCCCN)C(=O)N[C@@H](C)C(=O)N[C@@H](C)C(=O)N[C@@H](C)C(N)=O)NC(=O)[C@H](CC(N)=O)NC(=O)[C@H](CC(C)C)NC(=O)[C@H](Cc2ccc(O)cc2)NC1=O` [SEQ ID NO:69, Ac-[Lys^12,Nle^17,Ala^19,Asp^25,Leu^26,Lys^27,28,Ala^29-31]-VIP cyclo (Lys^21 →Asp^25)] (Ac-HSDAVFTDNYTKLRKQ[Nle]AAKKYLNDLKKAAA-NH2; lactam 21-25), for which the EC50 in experiment [1] was 0.42 nM. Also, the “Bronchodilator activity of VIP analogs” value in experiment [2] is 0.04 μg.

`CC[C@H](C)[C@H](NC(=O)[C@H](CO)NC(=O)[C@H](CC(N)=O)NC(=O)[C@H](CC(C)C)NC(=O)[C@H](Cc1ccc(O)cc1)NC(=O)[C@H](CCCCN)NC(=O)[C@H](CCCCN)NC(=O)[C@@H](NC(=O)[C@H](C)NC(=O)[C@H](CCSC)NC(=O)[C@H](CCC(N)=O)NC(=O)[C@H](CCCCN)NC(=O)[C@H](CCCNC(=N)N)NC(=O)[C@H](CC(C)C)NC(=O)[C@H](CCCNC(=N)N)NC(=O)[C@@H](NC(=O)[C@H](Cc1ccc(O)cc1)NC(=O)[C@H](CC(N)=O)NC(=O)[C@H](CC(=O)O)NC(=O)[C@@H](NC(=O)[C@H](Cc1ccccc1)NC(=O)[C@@H](NC(=O)[C@H](C)NC(=O)[C@H](CC(=O)O)NC(=O)[C@H](CO)NC(=O)[C@@H](N)Cc1c[nH]cn1)C(C)C)[C@@H](C)O)[C@@H](C)O)C(C)C)C(=O)N[C@@H](CC(C)C)C(=O)N[C@@H](CC(N)=O)C(N)=O` [VIP, Vasoactive intestinal peptide, reference compound] gave an EC50 in experiment [1] of 10 nM. In addition, the “Bronchodilator activity of VIP analogs” value in experiment [2] was 7.3 μg.
